In US8735424B2 (Novartis AG, priority 2008, dated 2014):

How the values were obtained:
PIM1 = PIM1 (Homo sapiens, UniProt P11309); test: Pim1 ATP depletion assay; assay type: biochemical; conditions: 20 μM ATP, 2.5 nM PIM1
Method: The activity of PIM1 is measured using a luciferase-luciferin based ATP detection reagent to quantify ATP depletion resulting from kinase-catalyzed phosphoryl transfer to a peptide substrate. Compounds to be tested are dissolved in 100% DMSO and directly distributed into white 384-well plates at 0.5 μl per well. To start the reaction, 10 μl of 5 nM Pim1 kinase and 80 μM BAD peptide (RSRHSSYPAGT-OH) in assay buffer (50 mM HEPES pH 7.5, 5 mM MgCl2, 1 mM DTT, 0.05% BSA) is added into each well. After 15 minutes, 10 μl of 40 μM ATP in assay buffer is added. Final assay concentrations are 2.5 nM PIM1, 20 μM ATP, 40 μM BAD peptide and 2.5% DMSO. The reaction is performed until approximately 50% of the ATP is depleted, then stopped with the addition of 20 μl KinaseGlo Plus (Promega Corporation) solution. The stopped reaction is incubated for 10 minutes and the remaining ATP detected via luminescence on the Victor2 (Perkin Elmer). […] IC50, the half maximal inhibitory concentration, represents the concentration of a test compound that is required for 50% inhibition of its target in vitro.

PIM3 = PIM3 (Homo sapiens, UniProt Q86V86); test: Pim3 ATP depletion assay; assay type: biochemical; conditions: 40 μM ATP
Method: The activity of PIM3 is measured using a luciferase-luciferin based ATP detection reagent to quantify ATP depletion resulting from kinase-catalyzed phosphoryl transfer to a peptide substrate. Compounds to be tested are dissolved in 100% DMSO and directly distributed into white 384-well plates at 0.5 μl per well. To start the reaction, 10 μl of 10 nM Pim3 kinase and 200 μM BAD peptide (RSRHSSYPAGT-OH) in assay buffer (50 mM HEPES pH 7.5, 5 mM MgCl2, 1 mM DTT, 0.05% BSA) is added into each well. After 15 minutes, 10 μl of 80 μM ATP in assay buffer is added. Final assay concentrations are 5 nM PIM1, 40 μM ATP, 100 μM BAD peptide and 2.5% DMSO. The reaction is performed until approximately 50% of the ATP is depleted, then stopped by the addition of 20 μl KinaseGlo Plus (Promega Corporation) solution. The stopped reaction is incubated for 10 minutes and the remaining ATP detected via luminescence on the Victor2 (Perkin Elmer).

KMS11 cells = test: Cell proliferation assay (CellTiter-Glo); assay type: cell-based; conditions: KMS-11, 72 h; KMS11 human myeloma cell line, 3 days
Method: KMS11 (human myeloma cell line), were cultured in IMDM supplemented with 10% FBS, sodium pyruvate and antibiotics. Cells were plated in the same medium at a density of 2000 cells per well into 96 well tissue culture plates, with outside wells vacant, on the day of assay. MM1.s (human myeloma cell line), were cultured in RPMI1640 supplemented with 10% FBS, sodium pyruvate and antibiotics. Cells were plated in the same medium at a density of 5000 cells per well into 96 well tissue culture plates, with outside wells vacant, on the day of assay.
Test compounds supplied in DMSO were diluted into DMSO at 500 times the desired final concentrations before dilution into culture media to 2 times final concentrations. Equal volumes of 2× compounds were added to the cells in 96 well plates and incubated at 37° C. for 3 days.
After 3 days plates were equilibrated to room temperature and equal volume of CellTiter-Glow Reagent (Promega) was added to the culture wells. The plates were agitated briefly and luminescent signal was measured with luminometer. The percent inhibition of the signal seen in cells treated with DMSO alone vs. cells treated with control compound was calculated and used to determine EC50 values (i.e., the concentration of a test compound that is required to obtain 50% of the maximum effect in the cells) for tested compounds, as shown in Example 41.

PIM2 = PIM2 (Homo sapiens, UniProt Q9P1W9); test: Pim2 ATP depletion assay; assay type: biochemical; conditions: 4 μM ATP, 5 nM PIM2
Method: The activity of PIM2 is measured using a luciferase-luciferin based ATP detection reagent to quantify ATP depletion resulting from kinase-catalyzed phosphoryl transfer to a peptide substrate. Compounds to be tested are dissolved in 100% DMSO and directly distributed into white 384-well plates at 0.5 μl per well. To start the reaction, 10 μl of 10 nM Pim2 kinase and 20 μM BAD peptide (RSRHSSYPAGT-OH) in assay buffer (50 mM HEPES pH 7.5, 5 mM MgCl2, 1 mM DTT, 0.05% BSA) is added into each well. After 15 minutes, 10 μl of 8 μM ATP in assay buffer is added. Final assay concentrations are 5 nM PIM2, 4 μM ATP, 10 μM BAD peptide and 2.5% DMSO. The reaction is performed until approximately 50% of the ATP is depleted, then stopped with the addition of 20 μl KinaseGlo Plus (Promega Corporation) solution. The stopped reaction is incubated for 10 minutes and the remaining ATP detected via luminescence on the Victor2 (Perkin Elmer).

PIM2, sequence (Q9P1W9 whole entry): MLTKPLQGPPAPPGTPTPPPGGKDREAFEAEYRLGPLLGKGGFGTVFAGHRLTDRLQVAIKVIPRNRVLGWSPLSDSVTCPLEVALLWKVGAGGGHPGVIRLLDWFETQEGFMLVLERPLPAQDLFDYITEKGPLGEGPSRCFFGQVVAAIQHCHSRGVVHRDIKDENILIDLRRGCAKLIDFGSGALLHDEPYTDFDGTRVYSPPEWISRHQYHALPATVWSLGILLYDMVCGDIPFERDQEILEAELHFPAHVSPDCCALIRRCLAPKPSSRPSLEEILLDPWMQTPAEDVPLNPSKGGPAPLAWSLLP
PIM1, sequence (P11309 whole entry): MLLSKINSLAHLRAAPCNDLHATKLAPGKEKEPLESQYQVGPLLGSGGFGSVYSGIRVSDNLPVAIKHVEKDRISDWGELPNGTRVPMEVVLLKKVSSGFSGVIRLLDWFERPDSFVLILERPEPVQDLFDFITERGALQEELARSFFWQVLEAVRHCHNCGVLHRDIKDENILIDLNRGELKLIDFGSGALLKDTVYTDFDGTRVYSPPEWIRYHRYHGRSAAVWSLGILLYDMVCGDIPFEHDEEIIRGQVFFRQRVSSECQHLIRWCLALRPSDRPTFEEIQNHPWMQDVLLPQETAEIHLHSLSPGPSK

Row | IC50 (PIM1) [nM] | IC50 (PIM3) [nM] | IC50 (PIM2) [nM] | SMILES | EC50 (KMS11 cells) [nM]
1 | 2 | 7 | 34 | Nc1ccc(-c2ccc(S(N)(=O)=O)cc2)nc1-c1cc2c(N3CCC[C@H](N)C3)ccnc2cn1 [Example 23, (S)-4-(5-amino-6-(4-(3-aminopiperidin-1-yl)-1,7-naphthyridin-6-yl)pyridin-2-yl)benzenesulfonamide] | 7800
2 | 1 | 6 | 40 | Nc1ccc(-c2c(F)cccc2F)nc1-c1cc2c(N3CCC[C@H](N)C3)ccnc2cn1 [Example 9, (S)-2-(4-(3-aminopiperidin-1-yl)-1,7-naphthyridin-6-yl)-6-(2,6-difluorophenyl)pyridin-3-amine] | 3700
3 | 10 | 10 | 45 | N[C@H]1CCCN(c2ccnc3ccc(-c4cccc(-c5nccs5)n4)cc23)C1 [Example 27, (S)-1-(6-(6-(thiazol-2-yl)pyridin-2-yl)quinolin-4-yl)piperidin-3-amine] | 940
4 | 9 | 21 | 98 | Nc1ccc(-c2cc(C(=O)Nc3ccccc3)ccc2F)nc1-c1cc2c(N3CCC[C@H](N)C3)ccnc2cn1 [Example 12, (S)-3-(5-amino-6-(4-(3-aminopiperidin-1-yl)-1,7-naphthyridin-6-yl)pyridin-2-yl)-4-fluoro-N-phenylbenzamide] | 4100
